Measurements from publication PMC6105804, “In Vitro and In Vivo Evaluation of APX001A/APX001 and Other Gwt1 Inhibitors against Cryptococcus” (Antimicrobial Agents and Chemotherapy, 2018).

How the values were obtained:
C. neoformans strain H99 [1] = test: Delayed-treatment model of cryptococcal meningitis; assay type: in vivo, Cryptococcus neoformans; conditions: treatment from 24 h after infection, QD 7 days; APX2096 60 mg/kg i.p. + ABT, AMB 3 mg/kg i.p.
Experimental: As in the previous mouse model, 100-mg/kg ABT (p.o.) was administered 2 h prior to each APX2096 dose (n = 5 mice/cohort). Infection was initiated on day 1, and treatment was initiated 24 h later (day 2) rather than 1 h later. Treatments were administered for 7 days (the final dose was administered on day 8), and mice were sacrificed on day 9 for CFU enumeration.
Male CD-1 mice were infected with 5.4 × 10^4 CFU per mouse via lateral tail vein injection. […] A dose of 100-mg/kg ABT was administered orally 2 h prior to each APX2096 dose. Mice were sacrificed 24 h after the last dose, and the brain and left lung were homogenized and cultured for quantitative determination of the tissue burden (number of CFU per gram of tissue). Fungal burden data were log10 transformed and evaluated using Kruskal-Wallis tests with Dunn's multiple-comparison test for post hoc analysis (Prism software, v5; GraphPad Software, Inc., San Diego, CA). A P value of ≤0.05 was considered statistically significant (*, P ≤ 0.05; **, P ≤ 0.01). The 95% confidence interval (CI) is presented.
Fungal burden data were log10 transformed and evaluated using Kruskal-Wallis tests with Dunn's multiple-comparison test for post hoc analysis (Prism software, v5; GraphPad Software, Inc., San Diego, CA). A P value of ≤0.05 was considered statistically significant.

[2] = Acute toxicity and survival observed in the CM model with ABT; assay type: in vivo, mouse; conditions: i.p. dosing + ABT; dose then reduced to 60 mg/kg for surviving mice
Experimental: (§1) ABT at 100 mg/kg was administered orally to male CD-1 mice at 2 h prior to each APX compound dose. Mice were injected with 6.9 × 10^4 CFU of C. neoformans strain H99 per mouse via the lateral tail vein at time zero. Treatment with the APX compound was initiated at about 1 h postinfection by i.p. administration and continued for 7 days, with 100-mg/kg ABT being administered orally 2 h prior to each APX compound dose. […] Fungal burden data were log10 transformed and evaluated using Kruskal-Wallis tests with Dunn's multiple-comparison test for post hoc analysis (Prism software, v5; GraphPad Software, Inc., San Diego, CA). A P value of ≤0.05 was considered statistically significant (*, P ≤ 0.05; **, P ≤ 0.01). The 95% confidence interval (CI) is presented.
(§2) C. neoformans strain H99 was grown in yeast extract-peptone-dextrose broth at 30°C on a shaker (220 rpm) for 24 h, centrifuged (1,980 relative centrifugal force), and washed twice in phosphate-buffered saline (PBS), resuspended in PBS, and quantified by hemacytometric count. Male CD-1 mice were infected with ∼5 × 10^4 CFU per mouse via lateral tail vein injection of 100 μl. Mice were weighed, and treatment was begun within 1 h after infection. Treatments were administered daily for 7 days. Mice were weighed daily and observed for acute and chronic adverse symptoms. Mice were sacrificed on day 8, and the brain and left lung were homogenized and cultured for quantitative determination of the tissue burden (number of CFU per gram of tissue). Tissues were homogenized for 25 s in 1 ml phosphate-buffered saline using two 6.5-mm steel beads and a Mini-Beadbeater 16 apparatus (Biospec Products, Inc., Bartlesville, OK) and serially diluted in 10-fold steps. Aliquots (100 μl) of homogenate were plated and incubated for 3 to 7 days at 37°C. Fungal burden data were log10 transformed and evaluated using Kruskal-Wallis tests with Dunn's multiple-comparison test for post hoc analysis (Prism software, v5; GraphPad Software, Inc., San Diego, CA). A P value of ≤0.05 was considered statistically significant.

C. neoformans strain H99 [3] = test: Murine cryptococcal meningitis model with ABT, dose-response study; assay type: in vivo, Cryptococcus neoformans
Experimental: A dose-response study was performed with APX2096 and APX2097 to confirm the observed activity. In this study, QD doses of 7.5, 20, and 60 mg/kg were evaluated in conjunction with the administration of ABT. A 60-mg/kg dose QD without ABT was also evaluated as a control.
FIG 3 Dose-response of APX2096 and APX2097 in a murine model of cryptococcal meningitis in conjunction with ABT administration. ABT at 100 mg/kg was administered orally to male CD-1 mice at 2 h prior to each APX compound dose. Mice were injected with 4.8 × 10^4 CFU C. neoformans strain H99 per mouse via the lateral tail vein at time zero. Treatment with the APX compounds was initiated at 1 h postinfection by i.p. administration and continued for 7 days, with 100-mg/kg ABT being administered orally 2 h prior to each APX compound dose. The correction factors for prodrug potencies versus the potencies of the active moieties were similar enough such that the same factor (1.3) was used for all APX compounds. Fungal burden data were log10 transformed and evaluated using Kruskal-Wallis tests with Dunn's multiple-comparison test for post hoc analysis (Prism software, v5; GraphPad Software, Inc., San Diego, CA). […] A P value of ≤0.05 was considered statistically significant (*, P ≤ 0.05; **, P ≤ 0.01; ***, P ≤ 0.001). The 95% confidence interval (CI) is presented.
as §2

C. neoformans strain H99 [4] = test: Murine cryptococcal meningitis model with ABT pretreatment (preliminary experiment); assay type: in vivo, Cryptococcus neoformans; conditions: 7 days
Experimental: In a preliminary experiment, the efficacies of APX001, APX2096, and APX2097 were evaluated in the disseminated model of CM (n = 5 mice/cohort). ABT at 100 mg/kg was administered orally to male CD-1 mice 2 h prior to APX compound administration. Mice were injected with 6.9 × 10^4 CFU of C. neoformans strain H99 per mouse via the lateral tail vein at time zero. Treatment with each prodrug was initiated at about 1 h postinfection by i.p. administration and continued daily for 7 days, with 100-mg/kg ABT being administered orally 2 h prior to each APX compound dose.
as §1, §2

[5] = 34 mg/kg QD i.p. + ABT 100 mg/kg p.o.

Which results are given for `Nc1c(-c2cc(Cc3ccc(Oc4cccc(F)n4)cc3)no2)ccc[n+]1COP(=O)([O-])O` [APX2096]?
reduction in brain tissue fungal burden vs untreated control (C. neoformans strain H99 [1]): 6.84 log10 CFU/g; reduction of the lung tissue fungal burden vs untreated control (C. neoformans strain H99 [1]): 4.59 log10 CFU/g; Acute toxicity observed (day of treatment) [2]: day 1; reduction in brain fungal burden (C. neoformans strain H99 [3]; 20 mg/kg QD i.p. + ABT): 2.95 log10 CFU/g; reduction in lung fungal burden (C. neoformans strain H99 [3]; 20 mg/kg QD i.p. + ABT): 3.69 log10 CFU/g; reduction in lung burden, without ABT (C. neoformans strain H99 [3]; 60 mg/kg/day i.p. without ABT, nonsignificant): 0.74 log10 CFU/g; reduction in brain fungal burden (C. neoformans strain H99 [4]; [5]): 7.05 log10 CFU/g; reduction in lung fungal burden (C. neoformans strain H99 [4]; [5]): approximately 4.67 log10 CFU/g; reduction in brain fungal burden (C. neoformans strain H99 [4]; 60 mg/kg i.p. (dose reduced after day 1) + ABT): 7.13 log10 CFU/g; reduction in lung fungal burden (C. neoformans strain H99 [4]; 60 mg/kg i.p. (dose reduced after day 1) + ABT, burden below the limit of detection): approximately 4.67 log10 CFU/g
